US6069167A, “Use of antioxidant agents to treat cholestatic liver disease” (priority 1997, dated 2000)

How the values were obtained:
[1] = Serum bile acid concentrations four hours after intravenous TCDC by GC-MS; assay type: in vivo, male Sprague-Dawley rats
Description: (§1) Young adult male Sprague-Dawley rats (150-180 gram weight) purchased from Sasco, Inc. (Omaha, Nebr.) were fed Purina Lab Chow (Ralston Purina Co., Chicago, Ill.) ad libitum for 2-3 weeks and housed in polyethylene cages with stainless steel tops on a 12-hour light-dark cycle. All rats received humane care in compliance with the guidelines of the Animal Use in Research Committee of the University of Colorado Health Sciences Center. Rats were then randomly assigned (4-5 per group) to receive 0 (vehicle only), 5, 10, or 20 μmol of taurochenodeoxycholic acid (TCDC)/100 gram body weight. TCDC is a conjugate of the bile acid most implicated in cholestatic liver injury9,11,12. TCDC was solubilized in 5% dextrose, 10% BSA, and 0.45% normal saline. TCDC was administered while rats were under light methoxyflurane anesthesia as an intravenous bolus of the desired dose in 1 to 2 minutes through the tail vein. TCDC dosing was performed between 7 and 9 am. Rats recovered from the injection uneventfully and blood was obtained at 0, 4, 8, 12 and 24 hours after the injection for determination of AST, ALT total bilirubin and alkaline phosphatase by an automated chemical analyzer (Hitachi 747 Chemical Analyzer).
Because serum AST and ALT concentrations peaked at 4 hours, further evaluation of liver injury was performed at that time point Total concentrations (conjugated+free bile acids) of individual bile acids were measured in serum obtained at 4 hours by gas chromatography-mass spectroscopy (GC-MS), as previously described^30. Briefly, after serum samples were extracted with the addition of the internal standard 7-alpha, 12-alpha, dihydroxy-5 beta cholanic acid, trimethylsilyl esterification was performed. Individual bile acids were then quantified by GC or GC-MS using a Hewlett-Packard 5790 flame ionization detector equipped with a 30 meter DB-1 capillary column with internal diameter of 0.25 mm and a film thickness of 0.25 micrometers (J & W Scientific, Folsom, Calif.). For GC-MS measurements, a Hewlett-Packard 5970-A mass selective detector operating in selective ion monitoring mode was used. Results were expressed as μmol/L for each individual bile acid.

bile flow = conditions: continuous jugular vein TCDC infusion 0.4 to 0.6 μmol/min/100 gram over 60 minutes; cited from earlier work
[2] = system: lactate dehydrogenase (LDH); experiment: Interference of TCDC with the LDH assay (total LDH activity of hepatocyte lysate); assay type: cell-based, rat; conditions: 10×10^6 hepatocytes incubated 4 hours with or without TCDC at 1000 μmol/L
Protocol: Adult male Sprague Dawley rats (250-275 grams body weight) were obtained from Sasco, Inc. (Omaha, Nebr.). They were maintained on Purina lab chow (Ralston Purina Co., Chicago, Ill.) for 2-3 weeks and housed in polyethylene cages with stainless steel tops on a […]. All rats received humane care in compliance with the guidelines of the Committee on Laboratory Animal Research of the University of Colorado Health Sciences Center. Hepatocytes were isolated using a collagenase reperfusion technique that was a modification^24 of the method of Berry and Friend^25. After administration of intraperitoneal anesthesia (50 mg/kg body weight), each rat liver was perfused in situ via the portal vein with Krebs-Henseleit buffer containing a mixture of 17 amino acids as previously described^24 under a 9% O2 /5% CO2 /86% N2 atmosphere until perfusate was blood free (after approximately 25-50 ml of perfusate infusion). […] Initial cell viability measured by the trypan blue exclusion method^43 was above 95%. […]
Hepatocyte injury was assessed by the percentage of total cellular lactate dehydrogenase (LDH) release into the buffer medium. LDH was analyzed by measuring the rate of decrease in absorbance at 340 nm during reduction of pyruvate using a diagnostic kit supplied by Sigma Diagnostics (St Louis, Mo.). […]

hepatic toxicity (liver) = experiment: Dose response of intravenous TCDC and hepatic toxicity (serum AST, ALT, bilirubin, alkaline phosphatase); assay type: in vivo, male Sprague-Dawley rats; conditions: for Serum ALT / Serum AST: mean ± SEM, n = 4
Description: as §1

[3] = 4 h after i.v. TCDC 10 μmol/100 gram, mean ± SEM, n = 5, P < 0.05 versus vehicle
[4] = 4 h after i.v. TCDC 10 μmol/100 gram, mean ± SEM, n = 5, conjugates plus unconjugates
[5] = i.v. bolus TCDC in rats, data not shown
[6] = i.v. bolus TCDC in rats, dose-dependent

- Serum individual bile acids, change versus vehicle ([1]; 4 h after i.v. TCDC 10 μmol/100 gram): significant increases in most bile acids
- Serum alpha-muricholic acid concentration [1, 3]: 77.4 ± 15.9 µmol/L
- Serum beta-muricholic acid concentration [1, 3]: 12.4 ± 3.3 µmol/L
- Serum cholic acid concentration [1, 3]: 134.8 ± 30.2 µmol/L
- Serum total bile acids concentration [1, 3]: 277.8 ± 49.0 µmol/L
- Serum deoxycholic acid concentration [1, 4]: 4.8 ± 1.2 µmol/L
- Serum lithocholic acid concentration [1, 4]: 0.6 ± 0.2 µmol/L
- Serum ursodeoxycholic acid concentration [1, 4]: 4.4 ± 0.4 µmol/L
- Lithocholate conjugates, change ([1]; in vivo model, TCDC): lack of substantial elevation
- Total hepatocyte LDH activity in the lysate [2]: 90-96 units
Structure (SMILES): C[C@H](CCC(=O)NCCS(=O)(=O)O)[C@H]1CC[C@H]2[C@@H]3[C@H](O)C[C@@H]4C[C@H](O)CC[C@]4(C)[C@H]3CC[C@]12C [TCDC, taurochenodeoxycholic acid]
- CDC concentrations, change ([1]; in vivo model, TCDC): elevated to a similar extent as the other bile acids
- Bile flow and hepatic bile secretion (bile flow): marked reduction in bile flow and of hepatic bile secretion
- Serum ALT (hepatic toxicity (liver); TCDC dose 5 i.v., 0 h): 52 ± 6 IU/L
- Serum AST (hepatic toxicity (liver); TCDC dose 5 i.v., 0 h): 73 ± 9 IU/L
- Serum ALT (hepatic toxicity (liver); TCDC dose 5 i.v., 4 h): 92 ± 23 IU/L
- Serum AST (hepatic toxicity (liver); TCDC dose 5 i.v., 4 h): 121 ± 24 IU/L
- Serum ALT (hepatic toxicity (liver); TCDC dose 5 i.v., 8 h): 88 ± 12 IU/L
- Serum AST (hepatic toxicity (liver); TCDC dose 5 i.v., 8 h): 110 ± 12 IU/L
- Serum ALT (hepatic toxicity (liver); TCDC dose 5 i.v., 12 h): 70 ± 7 IU/L
- Serum AST (hepatic toxicity (liver); TCDC dose 5 i.v., 12 h): 105 ± 12 IU/L
- Serum ALT (hepatic toxicity (liver); TCDC dose 5 i.v., 24 h): 72 ± 7 IU/L
- Serum AST (hepatic toxicity (liver); TCDC dose 5 i.v., 24 h): 89 ± 3.5 IU/L
- Serum ALT (hepatic toxicity (liver); TCDC dose 10 i.v., 0 h): 53 ± 3 IU/L
- Serum AST (hepatic toxicity (liver); TCDC dose 10 i.v., 0 h): 92 ± 8 IU/L
- Serum ALT (hepatic toxicity (liver); TCDC dose 10 i.v., 4 h): 1855 ± 701 IU/L
- Serum AST (hepatic toxicity (liver); TCDC dose 10 i.v., 4 h): 3679 ± 1105 IU/L
- Serum ALT (hepatic toxicity (liver); TCDC dose 10 i.v., 8 h): 1963 ± 701 IU/L
- Serum AST (hepatic toxicity (liver); TCDC dose 10 i.v., 8 h): 2233 ± 1906 IU/L
- Serum ALT (hepatic toxicity (liver); TCDC dose 10 i.v., 12 h): 492 ± 291 IU/L
- Serum AST (hepatic toxicity (liver); TCDC dose 10 i.v., 12 h): 605 ± 249 IU/L
- Serum ALT (hepatic toxicity (liver); TCDC dose 10 i.v., 24 h): 198 ± 82 IU/L
- Serum AST (hepatic toxicity (liver); TCDC dose 10 i.v., 24 h): 328 ± 82 IU/L
- Serum ALT (hepatic toxicity (liver); TCDC dose 20 i.v., 0 h): 64 ± 9 IU/L
- Serum AST (hepatic toxicity (liver); TCDC dose 20 i.v., 0 h): 70 ± 6 IU/L
- Serum ALT (hepatic toxicity (liver); TCDC dose 20 i.v., 4 h): 1712 ± 554 IU/L
- Serum AST (hepatic toxicity (liver); TCDC dose 20 i.v., 4 h): 1456 ± 748 IU/L
- Serum ALT (hepatic toxicity (liver); TCDC dose 20 i.v., 8 h): 1238 ± 257 IU/L
- Serum AST (hepatic toxicity (liver); TCDC dose 20 i.v., 8 h): 2057 ± 939 IU/L
- Serum ALT (hepatic toxicity (liver); TCDC dose 20 i.v., 12 h): 851 ± 167 IU/L
- Serum AST (hepatic toxicity (liver); TCDC dose 20 i.v., 12 h): 1282 ± 375 IU/L
- Serum ALT (hepatic toxicity (liver); TCDC dose 20 i.v., 24 h): 362 ± 75 IU/L
- Serum AST (hepatic toxicity (liver); TCDC dose 20 i.v., 24 h): 399 ± 41 IU/L
- Time of peak serum AST and ALT after injection (hepatic toxicity (liver); i.v. bolus TCDC in rats): 4 h
- Serum alkaline phosphatase, change (hepatic toxicity (liver); [5]): no significant changes
- Total serum bilirubin, change (hepatic toxicity (liver); [5]): no significant changes
- Serum ALT concentration, change (hepatic toxicity (liver); [6]): significant rise
- Serum AST concentration, change (hepatic toxicity (liver); [6]): significant rise
